Assay: Release of pesticide from 3-D printed binary solid objects in a stirred dissolution basket
Type: physicochemical
Settings: for Percentage Release, Water - after 720 min.: from binary solid object T7 (T3 + T4, no surfactant); for Percentage Release, Water - after 720 min. / Percentage Release, Water - after 30 min.: into water; for Percentage Release, S1 - after 30 min. / Percentage Release, S2 - after 30 min.: from binary solid object T7; for Percentage Release, S1 - after 30 min.: into S1 = water with 0.5% w/w Agnique FOH 90C-20; for Percentage Release, S2 - after 30 min.: into S2 = water with 0.5% w/w Agnique FOH 90C-20 and 1% Tween 80
Description: This Example illustrates a binary (two-sectioned) extruded solid object displaying both slow and fast release. The release of pesticide from the 3-D printed binary solid object T7 of Example 2 (containing T3 and T4) was measured. In each experiment three T7 solid objects were added to a dissolution basket which was stirred at 30 rpm. Release was measured into water; into water containing a commercially available surfactant (S1); and into water with two different types of commercially available surfactant (S2). […] Binary solid object T7 released 64% of the pesticide in 720 minutes. The release of the fungicide azoxystrobin in the same time period was only 27%; this was slow release. Release rates into the two surfactant containing media were faster for both pesticides. S1 contained water with 0.5% w/w of Agnique®FOH 90C-20 whereas S2 contained water with 0.5% w/w Agnique®FOH 90C-20 and 1% Tween® 80. Tween® 80 is a non-ionic surfactant: polyoxyethylene (20) sorbitan monooleate.
This Example illustrates the effect of a surfactant of the release profile of a binary (two-sectioned) extruded solid object. Similarly to Example 3, the releases of pesticides from the 3-D printed binary solid object T8 of Example 2 (containing T5 and T6) were measured; three solid objects T8 were added to a dissolution basket which was stirred at 30 rpm. […] Furthermore, compared to solid object T7 releasing fomesafen into water which already contains a high concentration of the same surfactant (S1 of Example 2), the release from T8 (the formulation with built-in surfactant) was considerably faster (78% versus 39.3% [S1]). […] Similar to the case for fomesafen we also see that the T8 azoxystrobin section (with built-in surfactant) released considerably more of the azoxystrobin than the T7 (surfactant free) solid object releasing into a surfactant solution (37% versus 28.9%).

[1] = from binary solid object T7 (sections T3 + T4, no surfactant), three objects, basket stirred at 30 rpm, 30 min
[2] = from binary solid object T7 into water, 720 min
[3] = from binary solid object T8 (fomesafen section T5, azoxystrobin section T6, both with built-in alkyl ethoxylate surfactant), 30 rpm, 30 min

Compound | Percentage Release, Water - after 720 min. (30 rpm, 720 min) | Percentage Release, Water - after 30 min. [1] | Percentage Release, S1 - after 30 min. (30 rpm, 30 min) | Percentage Release, S2 - after 30 min. (30 rpm, 30 min) | Release profile (in words) [2] | Percentage Release, Water - after 30 min. [3] | Increase of release rate from T8 compared to T7 (factor, water, 30 min, T8 (with surfactant) versus T7 (no surfactant)) | Release profile (in words) (from binary solid object T8 into water, 30 min)
CO/C=C(/C(=O)OC)c1ccccc1Oc1cc(Oc2ccccc2C#N)ncn1 [Azoxystrobin] | 27% | 15.6% | 28.9% | 48.3% | slow release | 37% | – | –
CS(=O)(=O)NC(=O)c1cc(Oc2ccc(C(F)(F)F)cc2Cl)ccc1[N+](=O)[O-] [Fomesafen] | 64% | 23.6% | 39.3% | 45.9% | fast release | 78% | three | fast release
